Here are results for 26 compounds from patent US10336762B2 (priority 2017, dated 2019).

In one experiment the test system is TNFα. Put plainly: cells. The format is cell-based, human. As to conditions: Homo sapiens, Monocyte, LPS-stimulated human monocytes, TNFα content; read-out: EC50 TNF.
The target in a further experiment is IRAK4 enzyme (Homo sapiens (Human), UniProt Q9NWZ3). Description: biochemical. The format is biochemical. As to conditions: IRAK4 enzyme, TR-FRET, 500 μM ATP. On the technique in general: In TR-FRET formats the signal depends on donor and acceptor labels being close together.
Chain of IRAK4 enzyme (Q9NWZ3 whole entry): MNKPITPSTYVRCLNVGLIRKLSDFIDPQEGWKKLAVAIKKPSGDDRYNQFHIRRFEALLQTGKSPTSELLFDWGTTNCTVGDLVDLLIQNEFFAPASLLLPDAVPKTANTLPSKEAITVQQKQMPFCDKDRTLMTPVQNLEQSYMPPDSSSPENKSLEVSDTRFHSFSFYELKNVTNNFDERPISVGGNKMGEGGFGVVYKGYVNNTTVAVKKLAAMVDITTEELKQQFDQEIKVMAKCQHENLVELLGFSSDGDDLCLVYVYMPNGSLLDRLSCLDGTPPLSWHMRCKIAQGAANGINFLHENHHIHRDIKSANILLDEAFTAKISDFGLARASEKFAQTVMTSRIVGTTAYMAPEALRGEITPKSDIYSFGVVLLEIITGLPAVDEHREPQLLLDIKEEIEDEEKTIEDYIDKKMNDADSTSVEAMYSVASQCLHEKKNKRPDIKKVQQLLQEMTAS

For orientation: EC50 means the concentration needed to bring the measured effect to its halfway point. A word on the IC50: it is the concentration at which inhibition is half-maximal. Lower therefore signals inhibition by little substance. Regarding `CC(C)(O)[C@H](F)CNC(=O)c1cnc(-c2ccc3cc(C#N)cnn23)cc1NC[C@H]1CCC(=O)N1` [Example 106, 6-(3-cyanopyrrolo[1,2-b]pyridazin-7-yl)-N-((R)-2-fluoro-3-hydroxy-3-methylbutyl)-4-((((R)-5-oxopyrrolidin-2-yl)methyl)amino) nicotinamide], in the experiment with TNFα, the EC50 came out at 1380 nM. On IRAK4 enzyme, this compound returned an IC50 of 3 nM.

On to `Cc1noc(C)c1CNc1cc(-c2ccc3cc(C#N)cnn23)ncc1C(=O)NC[C@@H](F)C(C)(C)O` [Example 107, (R)-6-(3-cyanopyrrolo[1,2-b]pyridazin-7-yl)-4-(((3,5-dimethylisoxazol-4-yl)methyl)amino)-N-(2-fluoro-3-hydroxy-3-methylbutyl) nicotinamide], for which, in the experiment on TNFα, the EC50 turned out to be 961 nM. The IC50 at IRAK4 enzyme is 17 nM.

Turning to `CNC(=O)[C@H](C)Nc1cc(-c2ccc3cc(C#N)cnn23)ncc1C(=O)NC[C@@H](F)C(C)(C)O` [Example 108, 6-(3-cyanopyrrolo[1,2-b]pyridazin-7-yl)-N-((R)-2-fluoro-3-hydroxy-3-methylbutyl)-4-(((S)-1-(methylamino)-1-oxopropan-2-yl)amino) nicotinamide], the EC50 in the experiment with TNFα was over 10000 nM. The same compound yielded an IC50 on IRAK4 enzyme of 88 nM.

Regarding `CC(C)(O)[C@H](F)CNC(=O)c1cnc(-c2ccc3cc(C#N)cnn23)cc1N[C@H]1CCN(C2COC2)C1` [Example 110, 6-(3-cyanopyrrolo[1,2-b]pyridazin-7-yl)-N-((R)-2-fluoro-3-hydroxy-3-methylbutyl)-4-(((S)-1-(oxetan-3-yl)pyrrolidin-3-yl)amino) nicotinamide], in the experiment with TNFα, the EC50 was determined as 191 nM. At IRAK4 enzyme, this compound yielded an IC50 of 4 nM.

Take `COCC1(Nc2cc(-c3ccc4cc(C#N)cnn34)ncc2C(=O)NC[C@@H](F)C(C)(C)O)CC1` [Example 112, (R)-6-(3-cyano-pyrrolo[1,2-b]pyridazin-7-yl)-N-(2-fluoro-3-hydroxy-3-methylbutyl)-4-((1-(methoxymethyl)cyclopropyl)amino)nicotinanide]: in the experiment on TNFα, the EC50 is 399 nM. Besides, the IC50 at IRAK4 enzyme is 4 nM.

With `CC(C)(O)[C@H](F)CNC(=O)c1cnc(-c2ccc3cc(C#N)cnn23)cc1N[C@H]1C[C@@H]2C[C@H]1CN2S(C)(=O)=O` [Example 113, 6-(3-cyanopyrrolo[1,2-b]pyridazin-7-yl)-N-((R)-2-fluoro-3-hydroxy-3-methylbutyl)-4-(((1S,4S,5S)-2-(methylsulfonyl)-2-azabicyclo[2.2.1]heptan-5-yl)amino)nicotinamide], the EC50 in the experiment on TNFα was determined as 3670 nM. At IRAK4 enzyme, this compound came in with an IC50 of 22 nM.

In the case of `CN1CCC(Nc2cc(-c3ccc4cc(C#N)cnn34)ncc2C(=O)NC[C@@H](F)C(C)(C)O)CC1` [Example 114, (R)-6-(3-cyanopyrrolo[1,2-b]pyridazin-7-yl)-N-(2-fluoro-3-hydroxy-3-methylbutyl)-4-((1-methylpiperidin-4-yl)amino)nicotinamide], the EC50 with TNFα amounted to 177 nM. This compound yielded an IC50 against IRAK4 enzyme of 4 nM.

With `CC(C)(O)[C@H](F)CNC(=O)c1cnc(-c2ccc3cc(C#N)cnn23)cc1NC1CCN(C2CC2)CC1` [Example 115, (R)-6-(3-cyanopyrrolo[1,2-b]pyridazin-7-yl)-4-((1-cyclopropylpiperidin-4-yl)amino)-N-(2-fluoro-3-hydroxy-3-methylbutyl)nicotinamide], the EC50 in the experiment on TNFα was 196 nM. On IRAK4 enzyme, this compound gave a half-maximal inhibitory concentration (IC50) of 4 nM.

For `CC(C)Nc1cc(-c2ccc3cc(C#N)cnn23)ncc1C(=O)NCC(F)(F)C(C)(C)O` [Example 116, 6-(3-cyanopyrrolo[1,2-b]pyridazin-7-yl)-N-(2,2-difluoro-3-hydroxy-3-methylbutyl)-4-(isopropylamino) nicotinamide], the EC50 with TNFα is 98 nM. For the same compound, on IRAK4 enzyme, the IC50 was under 1 nM.

On to `CC(C)(O)[C@H](F)CNC(=O)c1cnc(-c2ccc3cc(C#N)cnn23)cc1NC1CCC1` [Example 117, (R)-6-(3-cyanopyrrolo[1,2-b]pyridazin-7-yl)-4-(cyclobutyl-amino)-N-(2-fluoro-3-hydroxy-3-methylbutyl) nicotinamide], for which the EC50 in the experiment on TNFα worked out at 47 nM. At IRAK4 enzyme, this compound displayed an IC50 of under 1 nM.

`CC1(Nc2cc(-c3ccc4cc(C#N)cnn34)ncc2C(=O)NC[C@@H](F)C(C)(C)O)CC1` [Example 118, (R)-6-(3-cyanopyrrolo[1,2-b]pyridazin-7-yl)-N-(2-fluoro-3-hydroxy-3-methylbutyl)-4-((1-methylcyclopropyl)amino) nicotinamide]: in the experiment on TNFα, the EC50 was determined as 25 nM. The same compound displayed an IC50 on IRAK4 enzyme of under 1 nM.

For the compound `COCCn1cc(Nc2cc(-c3ccc4cc(C#N)cnn34)ncc2C(=O)NC[C@@H](F)C(C)(C)O)cn1` [Example 119, (R)-6-(3-cyanopyrrolo[1,2-b]pyridazin-7-yl)-N-(2-fluoro-3-hydroxy-3-methylbutyl)-4-((1-(2-methoxyethyl)-1H-pyrazol-4-yl)amino) nicotinamide], in the experiment on TNFα, the EC50 turned out to be 32 nM. At IRAK4 enzyme, this compound showed an IC50 of under 1 nM.

`CC(C)Nc1cc(-c2ccc3cc(C#N)cnn23)ncc1C(=O)N[C@H]1C[C@@](C)(O)C1` [Example 120, 6-(3-cyanopyrrolo[1,2-b]pyridazin-7-yl)-N-((1s,3s)-3-hydroxy-3-methylcyclobutyl)-4-(isopropylamino) nicotinamide]: the concentration giving a half-maximal response (EC50) in the experiment on TNFα was found to be 430 nM. For the same compound, the IC50 at IRAK4 enzyme was 8 nM.

In the case of `CC(C)Nc1cc(-c2ccc3cc(C#N)cnn23)ncc1C(=O)NCC1CCS(=O)(=O)CC1` [Example 121, 6-(3-cyanopyrrolo[1,2-b]pyridazin-7-yl)-N-((1,1-dioxidotetrahydro-2H-thiopyran-4-yl)methyl)-4-(isopropylamino) nicotinamide], the EC50 in the experiment with TNFα worked out at 365 nM. Moreover, half-maximal inhibition against IRAK4 enzyme (IC50) was put at 7 nM.

Regarding `CC(C)Nc1cc(-c2ccc3cc(C#N)cnn23)ncc1C(=O)NCC1(O)CCS(=O)(=O)C1` (stereo not shown) [Example 122, 6-(3-cyanopyrrolo[1,2-b]pyridazin-7-yl)-N-((3-hydroxy-1,1-dioxidotetrahydrothiophen-3-yl)methyl)-4-(isopropylamino)nicotinamide], in the experiment on TNFα, the EC50 is 867 nM. The same compound came in with an IC50 against IRAK4 enzyme of 17 nM.

As to `CC(C)Nc1cc(-c2ccc3cc(C#N)cnn23)ncc1C(=O)NC1CCS(=O)(=O)C1` (stereo not shown) [Example 123, 6-(3-cyanopyrrolo[1,2-b]pyridazin-7-yl)-N-(1,1-dioxidotetrahydrothiophen-3-yl)-4-(isopropylamino) nicotinamide], the EC50 in the experiment with TNFα turned out to be 421 nM. Besides, the IC50 at IRAK4 enzyme was found to be 6 nM.

In the case of `CC(=O)N[C@H]1C[C@H](NC(=O)c2cnc(-c3ccc4cc(C#N)cnn34)cc2NC(C)C)C1` [Example 124, N-((1r,3r)-3-acetamido-cyclobutyl)-6-(3-cyano-pyrrolo[1,2-b]pyridazin-7-yl)-4-(isopropylamino) nicotinamide], in the experiment with TNFα, the EC50 came out at 182 nM. On IRAK4 enzyme, this compound gave an IC50 of 3 nM.

`CC(C)Nc1cc(-c2ccc3cc(C#N)cnn23)ncc1C(=O)N[C@H]1CC[C@H](NC(=O)C2CC2)CC1` [Example 125, 6-(3-cyanopyrrolo[1,2-b]pyridazin-7-yl)-N-((1r,4r)-4-(cyclopropane-carboxamido)cyclohexyl)-4-(isopropyl-amino)nicotinamide]: the EC50 in the experiment with TNFα was 114 nM. Besides, the IC50 on IRAK4 enzyme was found to be 1 nM.

`CC(C)Nc1cc(-c2ccc3cc(C#N)cnn23)ncc1C(=O)N[C@H]1CC[C@H](NC(=O)N2CCOCC2)CC1` [Example 126, N-((1r,4r)-4-(6-(3-cyano-pyrrolo[1,2-b]pyridazin-7-yl)-4-(isopropylamino)nicotinamido)cyclohexyl) morpholine-4-carboxamide]: the EC50 with TNFα is 92 nM. The same compound had an IC50 against IRAK4 enzyme of 1 nM.

On to `CC(C)Nc1cc(-c2ccc3cc(C#N)cnn23)ncc1C(=O)N[C@H]1CC[C@H](NC(=O)C(F)(F)F)CC1` [Example 127, 6-(3-cyanopyrrolo[1,2-b]pyridazin-7-yl)-4-(isopropyl-amino)-N-((1r,4r)-4-(2,2,2-trifluoroacetamido)cyclohexyl)nicotinamide], for which the EC50 with TNFα amounted to 112 nM. This compound showed an IC50 against IRAK4 enzyme of under 1 nM.

Regarding `CCn1cnc(Nc2cc(-c3ccc4cc(C#N)cnn34)ncc2C(=O)NC[C@@H](F)C(C)(C)O)n1` [Example 128, (R)-6-(3-cyanopyrrolo[1,2-b]pyridazin-7-yl)-4-((1-ethyl-1H-1,2,4-triazol-3-yl)amino)-N-(2-fluoro-3-hydroxy-3-methylbutyl)nicotinamide], in the experiment with TNFα, the EC50 amounted to 141 nM. Also, inhibition at IRAK4 enzyme was half-maximal at 1 nM (IC50).

As to `CC(C)(O)[C@H](F)CNC(=O)c1cnc(-c2ccc3cc(C#N)cnn23)cc1Nc1cnn2c1CCCC2` [Example 129, (R)-6-(3-cyanopyrrolo[1,2-b]pyridazin-7-yl)-N-(2-fluoro-3-hydroxy-3-methylbutyl)-4-((4,5,6,7-tetrahydropyrazolo[1,5-a]pyridin-3-yl)amino)nicotinamide], the EC50 in the experiment on TNFα was 377 nM. On IRAK4 enzyme, this compound had an IC50 of 6 nM.

For `CC1(C)OCCC1Nc1cc(-c2ccc3cc(C#N)cnn23)ncc1C(=O)NC[C@@H](F)C(C)(C)O` (stereo partly drawn) [Example 130, 6-(3-cyanopyrrolo[1,2-b]pyridazin-7-yl)-4-((2,2-dimethyltetrahydrofuran-3-yl)amino)-N-((R)-2-fluoro-3-hydroxy-3-methylbutyl)nicotinamide], in the experiment with TNFα, the EC50 is 221 nM. Besides, the IC50 against IRAK4 enzyme is 3 nM.

Take `CC(=O)NC12CCC(NC(=O)c3cnc(-c4ccc5cc(C#N)cnn45)cc3NC(C)C)(CC1)CC2` [Example 131, N-(4-acetamido-bicyclo[2.2.2]octan-1-yl)-6-(3-cyanopyrrolo[1,2-b]pyridazin-7-yl)-4-(isopropylamino) nicotinamide]: the EC50 with TNFα was 154 nM. The compound further displayed an IC50 on IRAK4 enzyme of 1 nM.

Regarding `CC(=O)NC12CC(NC(=O)c3cnc(-c4ccc5cc(C#N)cnn45)cc3NC(C)C)(C1)C2` [Example 132, N-(3-acetamidobicyclo [1.1.1]pentan-1-yl)-6-(3-cyanopyrrolo[1,2-b]pyridazin-7-yl)-4-(isopropylamino) nicotinamide], in the experiment on TNFα, the EC50 was 222 nM. In addition, the half-inhibitory concentration (IC50) at IRAK4 enzyme was 5 nM.

As for `COCCCNc1cc(-c2ccc3cc(C#N)cnn23)ncc1C(=O)NC[C@@H](F)C(C)(C)O` [Example 133, (R)-6-(3-cyanopyrrolo[1,2-b]pyridazin-7-yl)-N-(2-fluoro-3-hydroxy-3-methylbutyl)-4-((3-methoxypropyl)amino) nicotinamide], the EC50 in the experiment with TNFα was 91 nM. Moreover, the IC50 against IRAK4 enzyme amounted to 1 nM.
